Measured values reported in US11471474B2, “Pharmaceutical or cosmetic composition for preventing or treating hair loss or promoting hair growth” (priority 2018, dated 2022).

Test system: human hair dermal papilla cells (HHDPC)
Assay: MTT cytotoxicity test of cADPR in human hair dermal papilla cells
Type: cell-based
Conditions: cADPR in the concentration range according to the invention (0.01 to 2 ppm tested), 48 hours
Experimental: To confirm cytotoxicity of cADPR in human hair dermal papilla cells (HHDPC), MTT assay which is a representative method for measuring cytotoxicity and determines cytotoxicity by measuring mitochondrial reducing power by dehydrogenase action was conducted.
Human hair dermal papilla cells were cultured in an HDP kit medium (Human hair dermal papilla cell media kit) at 37° C. in a 5% CO2 incubator (manufactured by Thermo Fisher Scientific, USA).
The cultured cells were dispensed into a 24-well plate at a concentration of 3×10^4 cells/well. After 18 hours, the cADPR mixture solutions according to Preparation Examples 1-1 to 1-6 (0.01, 0.05, 0.1, 0.5, 1 and 2 ppm, respectively) were added to each well. Then, the cells were cultured in the 5% CO2 incubator at 37° C. for 48 hours. After 48 hours of the incubation, each well was washed once with PBS (phosphate buffered saline) solution, and added with 50 μl of 5 mg/mL MTT reagent (Sigma, USA) and 450 μl of fresh medium. The wells were incubated for 2.5 hours and then supernatants were removed.

N=c1c2ncn3c2ncn1[C@@H]1O[C@H](COP(=O)(O)OP(=O)(O)OC[C@H]2O[C@@H]3[C@H](O)[C@@H]2O)[C@@H](O)[C@H]1O [cADPR, Cyclic ADP Ribose]
cytotoxicity: no cytotoxicity was observed
